The source of these data is patent publication US11753373B2, “Protease inhibitors as antivirals” (priority 2021, dated 2023).

The target in series [1] is SARS-CoV-2 M^pro (3CL protease) (Severe acute respiratory syndrome coronavirus 2 (2019-nCoV) (SARS-CoV-2), UniProt P0DTD1). Type of series: biochemical. The settings on record: read-out: SARS-CoV-2M^pro inhibition IC50.
The next series relates to SARS-CoV-2. As to the kind of experiment: Anti-viral in vitro PRNT assay in Vero E6 cells. The class given is cell-based. The settings on record: Vero E6 cells, 1000 pfu, 3 days, plaque reduction; for EC50: read-out: anti-SARS-CoV2 (PRNT) in Vero E6 EC50.
The format of series [2] is in vitro ADME, Human. Conditions: extraction ratio, compound at 1 uM, human liver microsomes 0.5 mg/mL.
Series [3] is classed as in vitro ADME. The settings on record: extraction ratio, compound at 1 uM; for Liver Microsomal Stability (ER) SD rat: SD rat liver microsomes 0.5 mg/mL; for Liver Microsomal Stability (ER) Beagle dog: beagle dog liver microsomes 0.5 mg/mL; for Liver Microsomal Stability (ER) Monkey: monkey liver microsomes 0.5 mg/mL; for Liver Microsomal Stability (ER) Mouse: mouse liver microsomes 0.5 mg/mL.

The conditions of series [4]: mouse oral PK, female Balb/c, 40 mg/kg single dose, plasma.
Description: Pharmacokinetics of test compounds was evaluated following an oral administration of a single dose (at 40 mg/kg) to female Balb/c mice.
Procedure: Test compounds were administered to Balb/c mice (n=3 per sex per time point) by a single oral gavage. The target dose level for oral administration was 40 mg/kg. Blood samples were collected at pre-dose, and at 0.083, 0.25, 0.50, 1, 2, 4, 6, 8, and 12 hours post-dose. Concentrations of test compound were determined by an LC-MS/MS. Non-compartmental Pharmacokinetic parameters of test compounds were analyzed using Phoenix WinNonlin 8.3.
Animal Dosing: All animals were fasted overnight through approximately 4 hours post-dose. Tap water was provided to mice ad Libitum. The mice were dosed orally at 10.0 ml/kg. The formulation volume of the test compound administered to each animal was calculated based on the body weight measured on the day of dosing.
Sample Collection and Analysis: Approximately 0.20 mL of blood was collected via orbital sinus vein puncture into EDTA-K2 tubes. Plasma samples were harvested by centrifugation and stored at −80° C. until analysis. The analytical method for test compound involved protein precipitation by adding acetonitrile containing 1% FA and internal standard (A-1-a synthesized in house or Tolbutamide purchased from Sigma), and final analysis by LC-MS/MS. A standard curve was prepared using mouse plasma for the test compound. The calibration curve was linear over a concentration range of 1.0 to 1000 ng/mL.
Pharmacokinetic and Statistic Analysis: The reported plasma concentrations of test compounds were used to determine pharmacokinetic parameters, using a non-compartmental model for data analysis (Phoenix WinNonlin 8.3). The common pharmacokinetic parameters were calculated, whenever possible, from the plasma concentration-versus-time data. Nominal doses and sampling times were used, except where deviations were noted. […] BQL after Tmax would not participate in calculation of PK parameters.
Setting [5] is: wild type Mpro 17 nM, substrate 40 uM.

Like-named read-outs stand apart in the source and are kept apart here.

In the case of `CC(C)C[C@H](NC(=O)c1cc2ccccc2[nH]1)C(=O)N[C@@H](C[C@@H]1CCNC1=O)C(=O)CCl` [Compound A-1-g, (2S)—N-[(2S)-4-chloro-3-oxo-1-[(3S)-2-oxopyrrolidin-3-yl]butan-2-yl]-2-[(1H-indol-2-yl)formamido]-4-methylpentanamide], the IC50 in series [1] was found to be 47 nM. The EC50 in the series on SARS-CoV-2 (Severe acute respiratory syndrome coronavirus 2, Vero C1008, 72 h) is 18200 nM. In addition, the “Liver Microsomal Stability (ER) Human” value in series [2] amounted to 0.80. Besides, in series [3], the “Liver Microsomal Stability (ER) SD rat” value worked out at 0.77, the “Liver Microsomal Stability (ER) Beagle dog” value stood at 0.71, the “Liver Microsomal Stability (ER) Monkey” value was determined as 0.68 and the “Liver Microsomal Stability (ER) Mouse” value is listed as 0.53.
Turning to `CC(C)(C)C(=O)N[C@H](C(=O)N1C[C@H]2[C@@H]([C@H]1C(=O)N[C@H](C#N)C[C@@H]1CCNC1=O)C2(C)C)C(C)(C)C` [Compound H-2-a], in series [1] (setting [5]), the concentration for half-maximal inhibition (IC50) was determined as 40.7 nM. In the series on SARS-CoV-2, the “anti-SARS-CoV2 (PRNT) in Vero E6 EC50 (μM)” value (“anti-SARS-CoV2 (PRNT)” for short) is listed as “Inactive”. Besides, in series [2], the “Liver Microsomal Stability (ER) Human” value is given as 0.53. Moreover, in series [3], the “Liver Microsomal Stability (ER) SD rat” value was found to be 0.15, the “Liver Microsomal Stability (ER) Beagle dog” value was 0.52 and the “Liver Microsomal Stability (ER) Mouse” value is recorded as 0.83.
Regarding `CC(C)C[C@H](NC(=O)c1cc2ccccc2[nH]1)C(=O)N1C[C@H]2[C@@H]([C@H]1C(=O)N[C@H](C#N)C(C)(C)C)C2(C)C` [Compound G-3-b], the IC50 in series [1] (setting [5]) was over 10000 nM. Also, the “Liver Microsomal Stability (ER) Human” value in series [2] is given as 0.28. In addition, in series [3], the “Liver Microsomal Stability (ER) SD rat” value was found to be 0.20, the “Liver Microsomal Stability (ER) Beagle dog” value was found to be 0.32 and the “Liver Microsomal Stability (ER) Mouse” value came to 0.55. For the same compound, in series [4], the “AUC0-t” value stood at 383.7 ng·h/mL, the “Cmax” value was found to be 169 ng/mL, the “Tmax” value worked out at 2 h and the “t1/2” value was 0.773 h.
As for `CC(C)(C)[C@H](NC(=O)C1CC1)C(=O)N1C[C@H]2[C@@H]([C@H]1C(=O)N[C@H](C#N)C[C@@H]1CCNC1=O)C2(C)C` [Compound H-2-c], the IC50 in series [1] (setting [5]) was 6.1 nM. The EC50 with SARS-CoV-2 came out at 3360 nM. Moreover, the “Liver Microsomal Stability (ER) Human” value in series [2] came out at 0.02. In series [3], the “Liver Microsomal Stability (ER) SD rat” value is 0.01, the “Liver Microsomal Stability (ER) Beagle dog” value is given as 0.01 and the “Liver Microsomal Stability (ER) Mouse” value came out at 0.32.
Consider `CC(C)C[C@H](NC(=O)C(F)F)C(=O)N1C[C@H]2[C@@H]([C@H]1C(=O)N[C@H](C=O)C[C@@H]1CCNC1=O)C2(C)C` [Compound H-1-a], for which the IC50 in series [1] (setting [5]) was 6.35 nM. Besides, in the series on SARS-CoV-2, the “anti-SARS-CoV2 (PRNT)” value is “inactive”. Also, in series [2], the “Liver Microsomal Stability (ER) Human” value is on record as 0.08. Moreover, in series [3], the “Liver Microsomal Stability (ER) SD rat” value was determined as 0.05, the “Liver Microsomal Stability (ER) Beagle dog” value came to 0.10 and the “Liver Microsomal Stability (ER) Mouse” value stood at 0.24.
As for `CC(C)C[C@H](NC(=O)C(C)C)C(=O)N1C[C@H]2[C@@H]([C@H]1C(=O)N[C@H](C#N)C[C@@H]1CCNC1=O)C2(C)C` [Compound H-1-e], in series [1] (setting [5]), the IC50 worked out at 43.3 nM. Further, the “Liver Microsomal Stability (ER) Human” value in series [2] is 0.05. In addition, in series [3], the “Liver Microsomal Stability (ER) SD rat” value was found to be 0.06, the “Liver Microsomal Stability (ER) Beagle dog” value is 0.05 and the “Liver Microsomal Stability (ER) Mouse” value was determined as 0.31.
Consider `CC(C)C[C@H](NC(=O)c1cc2ccccc2[nH]1)C(=O)N1C[C@H]2[C@@H]([C@H]1C(=O)N[C@@H](C[C@@H]1CCNC1=O)C(=O)CCl)C2(C)C` [Compound G-1-d, N-[(2S)-1-[(1R,2S,5S)-2-{[(2S)-4-chloro-3-oxo-1-[(3S)-2-oxopyrrolidin-3-yl]butan-2-yl]carbamoyl}-1,5-dihydrogenio-6,6-dimethyl-3-azabicyclo[3.1.0]hexan-3-yl]-4-methyl-1-oxopentan-2-yl]-1H-indole-2-carboxamide], for which, in series [1], the IC50 is 968 nM. Moreover, in series [2], the “Liver Microsomal Stability (ER) Human” value was 0.83. In addition, in series [3], the “Liver Microsomal Stability (ER) SD rat” value came out at 0.78, the “Liver Microsomal Stability (ER) Beagle dog” value turned out to be 0.81, the “Liver Microsomal Stability (ER) Monkey” value is reported as 0.92 and the “Liver Microsomal Stability (ER) Mouse” value turned out to be 0.59.
As for `CC(C)C[C@H](NC(=O)C(C)(C)C)C(=O)N1C[C@H]2[C@@H]([C@H]1C(=O)N[C@H](C#N)C[C@@H]1CCNC1=O)C2(C)C` [Compound H-1-d], the IC50 in series [1] (setting [5]) worked out at 39.6 nM. The “anti-SARS-CoV2 (PRNT)” value in the series with SARS-CoV-2 is “Inactive”. In addition, in series [2], the “Liver Microsomal Stability (ER) Human” value is reported as 0.26. For the same compound, in series [3], the “Liver Microsomal Stability (ER) SD rat” value turned out to be 0.09, the “Liver Microsomal Stability (ER) Beagle dog” value is 0.16 and the “Liver Microsomal Stability (ER) Mouse” value was 0.63.
Turning to `CC(C)C[C@H](NC(=O)[C@@H](NC(=O)C(F)F)[C@@H](C)OC(C)(C)C)C(=O)N[C@H](C#N)C[C@@H]1CCNC1=O` [Compound H-3-a], the IC50 in series [1] (setting [5]) stood at 8.1 nM. Also, in the series on SARS-CoV-2, the EC50 is 2190 nM. Also, in series [2], the “Liver Microsomal Stability (ER) Human” value is given as 0.35. In series [3], the “Liver Microsomal Stability (ER) SD rat” value worked out at 0.21, the “Liver Microsomal Stability (ER) Beagle dog” value was 0.06 and the “Liver Microsomal Stability (ER) Mouse” value is listed as 0.68.
For `CC(C)C(=O)N[C@H](C(=O)N1C[C@H]2[C@@H]([C@H]1C(=O)N[C@H](C#N)C[C@@H]1CCNC1=O)C2(C)C)C1CC1` [Compound D-2-b], the IC50 in series [1] (setting [5]) is 42.5 nM. Also, the “Liver Microsomal Stability (ER) Human” value in series [2] amounted to 0.08. Besides, in series [3], the “Liver Microsomal Stability (ER) SD rat” value is listed as 0.00, the “Liver Microsomal Stability (ER) Beagle dog” value is 0.06 and the “Liver Microsomal Stability (ER) Mouse” value turned out to be 0.10.
For the compound `CC(C)C[C@H](NC(=O)c1cc2ccccc2[nH]1)C(=O)N[C@@H](C[C@@H]1CCNC1=O)C(=O)CO` [Compound A-1-h], the IC50 in series [1] (setting [5]) is 10.2 nM. In addition, the “anti-SARS-CoV2 (PRNT)” value in the series with SARS-CoV-2 is “Inactive”. In series [2], the “Liver Microsomal Stability (ER) Human” value came out at 0.07. In series [3], the “Liver Microsomal Stability (ER) SD rat” value is listed as 0.13, the “Liver Microsomal Stability (ER) Beagle dog” value turned out to be 0.03 and the “Liver Microsomal Stability (ER) Mouse” value is reported as 0.23.
For `CC(C)C[C@H](NC(=O)c1cc2ccccc2[nH]1)C(=O)N1C[C@H]2[C@@H]([C@H]1C(=O)N[C@@H](C[C@@H]1CCNC1=O)C(=O)CO)C2(C)C` [Compound G-1-e], the IC50 in series [1] (setting [5]) amounted to 57.9 nM. In addition, the “Liver Microsomal Stability (ER) Human” value in series [2] is given as 0.17. Also, in series [3], the “Liver Microsomal Stability (ER) SD rat” value turned out to be 0.07, the “Liver Microsomal Stability (ER) Beagle dog” value was 0.07 and the “Liver Microsomal Stability (ER) Mouse” value amounted to 0.25.
Consider `Cc1cccc2[nH]c(C(=O)N[C@@H](CC(C)C)C(=O)N[C@H](C#N)C[C@@H]3CCNC3=O)cc12` [Compound A-4-b], for which the IC50 in series [1] (setting [5]) stood at 172 nM. Besides, in series [2], the “Liver Microsomal Stability (ER) Human” value is listed as 0.02. Also, in series [3], the “Liver Microsomal Stability (ER) SD rat” value was found to be 0.20, the “Liver Microsomal Stability (ER) Beagle dog” value was 0.06, the “Liver Microsomal Stability (ER) Monkey” value is on record as 0.43 and the “Liver Microsomal Stability (ER) Mouse” value amounted to 0.47.
